Results as given in publication PMC5485019 (2017).

Experiments:
[1] = tested on: F21T (DNA, G4) GGGTTAGGGTTAGGGTTAGGG; assay: FRET melting; conditions: 10 mM Li cacodylate, 1 μM ligand, 200 nM DNA
[2] = tested on: FMycT (F-Myc-T) (DNA, G4) TTGAGGGTGGGTAGGGTGGGTAA; assay: FRET melting; conditions: 1 mM KCl, 99 mM LiCl, 10 mM Li cacodylate, 200 nM DNA
[3] = tested on: F10T (DNA, hairpin, hexaethylene glycol (HEG) linker between nucleotides 10 and 11) TATAGCTATATATAGCTATA; assay: FRET melting; conditions: 10 mM KCl, 90 mM LiCl, 10 mM Li cacodylate, 200 nM DNA
[4] = tested on: F21T (DNA, G4) GGGTTAGGGTTAGGGTTAGGG; assay: FRET melting; conditions: 10 mM Li cacodylate, 200 nM DNA
[5] = tested on: telo23 (DNA, G4) TAGGGTTAGGGTTAGGGTTAGGG; assay: ITC; conditions: K+ (100 mM potassium phosphate); pH 7.4, 25 °C (298 K); 15 µM DNA; bracket = 68.3 % confidence interval
[6] = tested on: F10T (DNA, hairpin, hexaethylene glycol (HEG, (-CH2CH2O-)6) linker between nucleotides 10 and 11) TATAGCTATATATAGCTATA; assay: FRET melting; conditions: 10 mM KCl, 90 mM LiCl; 10 mM Li cacodylate; 1 μM ligand, 200 nM DNA
[7] = tested on: FMycT (F-Myc-T) (DNA, G4) TTGAGGGTGGGTAGGGTGGGTAA; assay: FRET melting; conditions: 1 mM KCl, 99 mM LiCl; 10 mM Li cacodylate; 1 μM ligand, 200 nM DNA
[8] = tested on: telo23 (DNA, G4) TAGGGTTAGGGTTAGGGTTAGGG; assay: CD titration; conditions: Na+ (100 mM sodium phosphate); pH 7.4 (main text 7.2); 4.22 µM DNA; antiparallel shifts towards hybrid
[9] = 100 mM NaCl, no stabilization up to 10 μM
[10] = 1 µM ligand, no stabilization up to 10 µM
[11] = 10 mM KCl, 90 mM LiCl, 1 μM ligand
[12] = 100 mM NaCl, 1 μM ligand, no stabilization up to 10 μM

| ΔT max [1, 9] | K a [5] | ΔT max [6] | ΔT max [7] | ΔT max ([1]; 10 mM KCl, 90 mM LiCl) | SMILES | further results |
| --- | --- | --- | --- | --- | --- | --- |
| −0.6±0.5 °C | – | 0.4±0.2 °C | 1±0.4 °C | 1.3±0.4 °C | Cn1cc[n+](CCN2C(=O)c3ccc4c5c(ccc(c35)C2=O)C(=O)N(CC[n+]2ccn(C)c2)C4=O)c1 | – |
| – | – | – | – | 2.3±0.5 °C | CN(C)CCCN1C(=O)c2ccc3c4c(ccc(c24)C1=O)C(=O)N(CCCN(C)C)C3=O | ΔT max ([1]; 100 mM NaCl): −1.5±0.2 °C; ΔT max ([2]; 1 μM ligand): 3.9±0.2 °C; ΔT max ([3]; 1 μM ligand): 1.1±0.1 °C |
| – | 2.16 (1.85,2.52) × 10^6 M^-1 | 0.1±0.1 °C | 1.8±0.8 °C | 3.7±0.3 °C | Cn1cc[n+](CCCN2C(=O)c3ccc4c5c(ccc(c35)C2=O)C(=O)N(CCC[n+]2ccn(C)c2)C4=O)c1 | ΔT max ([1]; 100 mM NaCl): −0.5±0.4 °C |

The remaining lines, values behind:

| SMILES | ΔT max [1, 9] | K a [5] | ΔT max [6] | ΔT max [7] | ΔT max ([1]; 10 mM KCl, 90 mM LiCl) | further results |
| --- | --- | --- | --- | --- | --- | --- |
| O=C1c2ccc3c4c(ccc(c24)C(=O)N1CCO[C@@H]1O[C@H](CO)[C@@H](O)[C@H](O)[C@H]1O)C(=O)N(CCO[C@@H]1O[C@H](CO)[C@@H](O)[C@H](O)[C@H]1O)C3=O | −0.1±0.5 °C | – | – | – | – | ΔT max [2, 10]: −0.3±0.4 °C; ΔT max [3, 10]: 0.5±0.2 °C; ΔT max ([4]; 10 mM KCl, 90 mM LiCl, 1 µM ligand, no stabilization up to 10 µM): 0.4±0.1 °C |
| CN1CCN(CCCN2C(=O)c3ccc4c5c(ccc(c35)C2=O)C(=O)N(CCCN2CCN(C)CC2)C4=O)CC1 | – | 1.03 (0.865,1.23) × 10^6 M^-1 | 0.3±0.2 °C | 0.5±0.3 °C | – | binding [8]: yes; ΔT max [4, 11]: 9.8±0.6 °C; ΔT max [4, 12]: −2.3±0.3 °C |
| Cn1cc[n+](C[C@H]2O[C@H](OCCN3C(=O)c4ccc5c6c(ccc(c46)C3=O)C(=O)N(CCO[C@H]3O[C@H](C[n+]4ccn(C)c4)[C@@H](O)[C@H](O)[C@@H]3O)C5=O)[C@@H](O)[C@@H](O)[C@@H]2O)c1 | – | 1.30 (1.02,1.64) × 10^6 M^-1 | – | – | – | ΔT max ([2]; 1 µM ligand, 10.5 °C at 10 µM): −0.3±0.7 °C; ΔT max ([3]; 1 µM ligand, 3.2 °C at 10 µM): −0.1±0.1 °C; binding [8]: yes; ΔT max [4, 11]: 10.1±0.3 °C; ΔT max [4, 12]: −1.4±0.3 °C |
| C[n+]1ccc(-c2c3nc(c(-c4cc[n+](C)cc4)c4ccc([nH]4)c(-c4cc[n+](C)cc4)c4nc(c(-c5cc[n+](C)cc5)c5ccc2[nH]5)C=C4)C=C3)cc1 | – | – | – | – | – | ∆Tmax [4, 11]: 27.4 ± 0.4 °C |
| Cn1cc[n+](C[C@H]2O[C@@H](OCCN3C(=O)c4ccc5c6c(ccc(c46)C3=O)C(=O)N(CCO[C@@H]3O[C@H](C[n+]4ccn(C)c4)[C@@H](O)[C@H](O)[C@H]3O)C5=O)[C@H](O)[C@@H](O)[C@@H]2O)c1 | −1.5±0.4 °C | – | 0.1±0.2 °C | 0.9±0.7 °C | 2.9±0.3 °C | – |
